In brackets after ≈: the same amount, converted by molar mass. Read-outs that look alike come from different tables or passages of the source.
Assays:
[1] = tested on: M. kansasii; assay: In vitro agar dilution assay (MIC), M. kansasii; format: cell-based; conditions: Mycobacterium kansasii, read-out: MIC (μg/ml) M. kansasii (n = 2)
[2] = tested on: M. avium-intracellulare complex; assay: In vitro agar dilution assay (MIC), M. avium-intracellulare complex; format: cell-based; conditions: Mycobacterium avium-intracellulare; Table II; 13 strains; read-out: MIC (μg/ml) M. avium-intracellulare complex (n = 13)
[3] = tested on: M. tuberculosis 27294; assay: In vitro agar dilution assay (MIC), reference strain; format: cell-based, Mycobacterium tuberculosis; conditions: for MIC: Mycobacterium tuberculosis, 27294, Table I, read-out: MIC (μg/ml) against M. tuberculosis-27294
[4] = tested on: M. tuberculosis clinical isolates, sensitive; assay: microbe, parasite or virus in culture; format: cell-based, Mycobacterium tuberculosis; conditions: for MIC: Mycobacterium tuberculosis
[5] = tested on: M. tuberculosis H37Rv ATCC 27294; assay: In vitro growth inhibition assay, BACTEC 460 TB system; format: cell-based, Mycobacterium tuberculosis; design: key: +: If ΔGI of test vial is less than that of the control vial the culture was sensitive to the test compound; conditions: final concentration 6.25 μg/ml
[6] = tested on: M. fortuitum; assay: In vitro agar dilution assay (MIC), M. fortuitum; format: cell-based, Mycobacterium fortuitum; conditions: Mycolicibacterium fortuitum, read-out: MIC (μg/ml) M. fortuitum (n = 8)
[7] = tested on: M. tuberculosis strain 103471; conditions: literature values; cited from earlier work
[8] = tested on: M. tuberculosis H37Rv ATCC 27294; assay: Murine model of pulmonary tuberculosis, treated 01 day post-infection; conditions: for Mean Log10 No. of CFU Lung / Mean Log10 No. of CFU Spleen: 5 day/week for 4 week; for Mean Log10 no. of reduction Lung / Mean Log10 no. of reduction Spleen / Mean Log10 No. of reduction Lung / Mean Log10 No. of reduction Spleen: difference from early controls
[9] = Acute toxicity study in mice; format: in vivo, Swiss albino mice; conditions: for LD0: single oral dose, mice
Protocol: Compound No. 3 of formula (I) was administered, as a single oral dose, in Swiss albino mice. Two dose levels of 500 and 2000 mg/kg were employed. […] Therefore LD0 was >2000 mg/kg by oral route in mice. […] Similarly in compound No. 12 of Formula I, LD0 was >500 mg/kg by oral route in mice.

[10] = tested on: M. tuberculosis H37Rv ATCC 27294; assay: Murine model of pulmonary tuberculosis, treated 14 days post-infection; conditions: Table IV; for Mean Log10 No. of CFU Lung / Mean Log10 No. of CFU Spleen: 5 day/week for 4 week, treated 14 days post-infection; for Mean Log10 no. of reduction Lung / Mean Log10 no. of reduction Spleen: difference from early controls
[11] = mice, oral route; cited from earlier work
[12] = read-out: MIC (μg/ml) M. tuberculosis Sensitive (n = 17)
[13] = read-out: MIC (μg/ml) against Clinical isolates Sensitive
[14] = Table III, 12.5 mg/kg gavage, treatment from 1 day after infection
[15] = Table III, 25 mg/kg gavage, treatment from 1 day after infection
[16] = Table III, 50 mg/kg gavage, treatment from 1 day after infection
[17] = Table VI, 12.5 mg/kg, treated 01 day post-infection
[18] = Table VI, 25 mg/kg, treated 01 day post-infection
[19] = Table VI, 50 mg/kg, treated 01 day post-infection

## COc1ccccc1N1CCN(Cc2cc(-c3ccc(Cl)cc3)n(-c3ccc(Cl)cc3)c2C)CC1 [Compound No. 2, 1-{[1,5-bis(4-chlorophenyl)-2-methylpyrrol-3-yl]methyl}-4-(2-methoxyphenyl) piperazine]
[1]; Table II, 2 strains
  MIC: 8 µg/mL (≈ 15.8 µM)
[2]
  MIC: 4 to 8 µg/mL (≈ 7.9 to 15.8 µM)
[3]
  MIC: 0.25 µg/mL (≈ 0.494 µM)
[4]; [12]
  MIC: 0.125 to 0.25 µg/mL (≈ 0.247 to 0.494 µM)
[4]; [13]
  MIC: 0.125 to 0.25 µg/mL (≈ 0.247 to 0.494 µM)
[5]
  Growth inhibition of M. tuberculosis 27294: +
[6]; Table II, 8 strains
  MIC: 8 to 16 µg/mL (≈ 15.8 to 31.6 µM)

## Cc1c(CN2CCN(c3ncccn3)CC2)cc(-c2ccc(Cl)cc2)n1-c1ccc(Cl)cc1 [compound 5, 1-{[1,5-bis(4-chlorophenyl)-2-methylpyrrol-3-yl]methyl}-4-(2-pyrimidyl) piperazine]
[1]; Table II, 2 strains
  MIC: 8 µg/mL (≈ 16.7 µM)
[2]
  MIC: 4 to 8 µg/mL (≈ 8.36 to 16.7 µM)
[3]
  MIC: 0.25 µg/mL (≈ 0.523 µM)
[4]; [12]
  MIC: 0.5 to 1 µg/mL (≈ 1.05 to 2.09 µM)
[4]; [13]
  MIC: 0.5 to 1 µg/mL (≈ 1.05 to 2.09 µM)
other
  melting point: 184 to 186 °C
[5]
  Growth inhibition of M. tuberculosis 27294: +
[6]; Table II, 8 strains
  MIC: 8 to 16 µg/mL (≈ 16.7 to 33.4 µM)

## Cc1c(CN2CCN(c3ccccn3)CC2)cc(-c2ccccc2)n1-c1ccc(F)cc1F [compound 54, 1-{[1-(2,4-difluorophenyl)-2-methyl-5-phenylpyrrol-3-yl]methyl}-4-(2-pyridyl) piperazine]
[3]
  MIC: 2 µg/mL (≈ 4.5 µM)
[4]; [13]
  MIC: 4 µg/mL (≈ 9 µM)
other
  melting point: 144 to 146 °C
[5]
  Growth inhibition of M. tuberculosis 27294: +

## Cc1c(CN2CCN(C)CC2)cc(-c2ccc(Cl)cc2)n1-c1ccc(Cl)cc1 [BM 212]
[7]
  MIC value (μg/ml) against the M. tuberculosis strain 103471: 0.70 µg/mL (≈ 1.69 µM)

## Cc1c(CN2CCN(c3cccc(C(F)(F)F)c3)CC2)cc(-c2ccc(Cl)cc2)n1-c1ccc(Cl)cc1 [Compound No. 3, 1-{[1,5-bis(4-chlorophenyl)-2-methylpyrrol-3-yl]methyl}-4-(3-trifluoromethylphenyl)piperazine]
[1]; Table II, 2 strains
  MIC: 4 µg/mL (≈ 7.35 µM)
[8]; [14]
  Mean Log10 No. of CFU Lung: 2.63
  Mean Log10 No. of CFU Spleen: 2.6
[8]; Table III, 12.5 mg/kg
  Mean Log10 no. of reduction Lung: 1.85
  Mean Log10 no. of reduction Spleen: 2.03
[8]; [15]
  Mean Log10 No. of CFU Lung: 2.13
  Mean Log10 No. of CFU Spleen: 2.07
[8]; Table III, 25 mg/kg
  Mean Log10 no. of reduction Lung: 2.35
  Mean Log10 no. of reduction Spleen: 2.29
[8]; [16]
  Mean Log10 No. of CFU Lung: 1.97
  Mean Log10 No. of CFU Spleen: 1.94
[8]; Table III, 50 mg/kg
  Mean Log10 no. of reduction Lung: 2.51
  Mean Log10 no. of reduction Spleen: 2.64
[2]
  MIC: 4 to 8 µg/mL (≈ 7.35 to 14.7 µM)
[3]
  MIC: 0.125 µg/mL (≈ 0.23 µM)
[4]; [12]
  MIC: 0.125 to 0.25 µg/mL (≈ 0.23 to 0.459 µM)
[4]; [13]
  MIC: 0.125 to 0.25 µg/mL (≈ 0.23 to 0.459 µM)
[9]; single oral dose 500 and 2000 mg/kg, Swiss albino mice, observed for 14 days
  Clinical symptoms or mortality: No clinical symptom or mortality was observed
[9]; single oral dose 500 and 2000 mg/kg, mice sacrificed on day 15
  Pathological changes in organs: no pathological changes were seen in any organ
[9]; observed for 14 days
  LD0: > 2000 mg/kg
[5]
  Growth inhibition of M. tuberculosis 27294: +
[6]; Table II, 8 strains
  MIC: 4 to 8 µg/mL (≈ 7.35 to 14.7 µM)

## Cc1c(CN2CCN(c3cccc(C(F)(F)F)c3)CC2)cc(-c2ccccc2)n1NC(=O)c1ccncc1 [Compound No. 12, N-(3-{[4-(3-trifluoromethylphenyl)piperazinyl]methyl}-2-methyl-5-phenylpyrrolyl)-4-pyridylcarboxamide]
[8]; [17]
  Mean Log10 No. of CFU Lung: 2.34 ± 0.18
  Mean Log10 No. of CFU Spleen: 2.26 ± 0.21
[8]; Table VI, 12.5 mg/kg
  Mean Log10 No. of reduction Lung: 2.23
  Mean Log10 No. of reduction Spleen: 2.43
[8]; [18]
  Mean Log10 No. of CFU Lung: 2.1 ± 0.24
  Mean Log10 No. of CFU Spleen: 2.13 ± 0.28
[8]; Table VI, 25 mg/kg
  Mean Log10 No. of reduction Lung: 2.47
  Mean Log10 No. of reduction Spleen: 2.56
[8]; [19]
  Mean Log10 No. of CFU Lung: 1.89 ± 0.24
  Mean Log10 No. of CFU Spleen: 1.94 ± 0.23
[8]; Table VI, 50 mg/kg
  Mean Log10 No. of reduction Lung: 2.68
  Mean Log10 No. of reduction Spleen: 2.75
[3]; Table I
  MIC (μg/ml) against M. tuberculosis-27294: 0.25 µg/mL (≈ 0.481 µM)
[4]; Table I, agar dilution
  MIC (μg/ml) against Clinical isolates Sensitive: 0.25 to 0.5 µg/mL
[10]; 12.5 mg/kg
  Mean Log10 No. of CFU Lung: 4.18 ± 0.38
  Mean Log10 No. of CFU Spleen: 4.41 ± 0.26
  Mean Log10 no. of reduction Lung: 1.41
  Mean Log10 no. of reduction Spleen: 1.54
[10]; 25 mg/kg
  Mean Log10 No. of CFU Lung: 2.87 ± 0.15
  Mean Log10 No. of CFU Spleen: 2.83 ± 0.29
  Mean Log10 no. of reduction Lung: 2.72
  Mean Log10 no. of reduction Spleen: 3.12
[10]; 50 mg/kg
  Mean Log10 No. of CFU Lung: 2.74 ± 0.36
  Mean Log10 No. of CFU Spleen: 2.78 ± 0.32
  Mean Log10 no. of reduction Lung: 2.85
  Mean Log10 no. of reduction Spleen: 3.17
[9]; observed for 14 days
  LD0: > 500 mg/kg
[5]
  Growth inhibition of M. tuberculosis 27294: +

## NNC(=O)c1ccncc1 [Isoniazid, reference compound]
[11]
  Reported LD50: 139 mg/kg
[1]
  MIC: > 16 µg/mL
[7]
  MIC value (μg/ml) against the M. tuberculosis strain 103471: 0.25 µg/mL (≈ 1.82 µM)
[8]; [14]
  Mean Log10 No. of CFU Lung: 2.93
  Mean Log10 No. of CFU Spleen: 2.91
[8]; Table III, 12.5 mg/kg
  Mean Log10 no. of reduction Lung: 1.55
  Mean Log10 no. of reduction Spleen: 1.72
[8]; [15]
  Mean Log10 No. of CFU Lung: 2.16
  Mean Log10 No. of CFU Spleen: 2.21
[8]; Table III, 25 mg/kg
  Mean Log10 no. of reduction Lung: 2.36
  Mean Log10 no. of reduction Spleen: 2.27
[8]; [16]
  Mean Log10 No. of CFU Lung: 1.95
  Mean Log10 No. of CFU Spleen: 2.12
[8]; Table III, 50 mg/kg
  Mean Log10 no. of reduction Lung: 2.53
  Mean Log10 no. of reduction Spleen: 2.51
[8]; [17]
  Mean Log10 No. of CFU Lung: 2.89 ± 0.27
  Mean Log10 No. of CFU Spleen: 2.91 ± 0.42
[8]; Table VI, 12.5 mg/kg
  Mean Log10 No. of reduction Lung: 1.68
  Mean Log10 No. of reduction Spleen: 1.78
[8]; [18]
  Mean Log10 No. of CFU Lung: 2.23 ± 0.33
  Mean Log10 No. of CFU Spleen: 2.21 ± 0.44
[8]; Table VI, 25 mg/kg
  Mean Log10 No. of reduction Lung: 2.34
  Mean Log10 No. of reduction Spleen: 2.48
[8]; [19]
  Mean Log10 No. of CFU Lung: 2.02 ± 0.31
  Mean Log10 No. of CFU Spleen: 2.07 ± 0.33
[8]; Table VI, 50 mg/kg
  Mean Log10 No. of reduction Lung: 2.55
  Mean Log10 No. of reduction Spleen: 2.62
[3]
  MIC: 0.25 µg/mL (≈ 1.82 µM)
[4]; [12]
  MIC: 0.25 µg/mL (≈ 1.82 µM)
[4]; [13]
  MIC: 0.125 to 0.25 µg/mL (≈ 0.911 to 1.82 µM)
[10]; 12.5 mg/kg
  Mean Log10 No. of CFU Lung: 4.56 ± 0.24
  Mean Log10 No. of CFU Spleen: 4.93 ± 0.42
  Mean Log10 no. of reduction Lung: 1.03
  Mean Log10 no. of reduction Spleen: 1.02
[10]; 25 mg/kg
  Mean Log10 No. of CFU Lung: 3.19 ± 0.6
  Mean Log10 No. of CFU Spleen: 3.08 ± 0.44
  Mean Log10 no. of reduction Lung: 2.4
  Mean Log10 no. of reduction Spleen: 2.87
[10]; 50 mg/kg
  Mean Log10 No. of CFU Lung: 2.97 ± 0.46
  Mean Log10 No. of CFU Spleen: 2.89 ± 0.27
  Mean Log10 no. of reduction Lung: 2.62
  Mean Log10 no. of reduction Spleen: 3.06
[5]
  Growth inhibition of M. tuberculosis 27294: +
[6]
  MIC: > 16 µg/mL

From patent publication US7763602B2, “Pyrrole derivatives as antimycobacterial compounds” (priority 2002, dated 2010)
